Source: ChEMBL document CHEMBL1201862, “PubChem BioAssay data set” (2004)
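Five concentrations, 48 hours, 96-well plates. The concentration for 50% growth inhibition is given as GI50.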 Activity calls are given as the source filed them. No stated cut-off is given here; in the data, active = GI50 up to about 1.1 µM and inactive = higher.

Assays:
Experiment in all cases: NCI-60 cell line screen, 48 h
[1] = system: MDA-N
[2] = system: DU-145
[3] = system: SK-MEL-2
[4] = system: T47D
[5] = system: SW-620
[6] = system: PC-3
[7] = system: M14
[8] = system: TK-10
[9] = system: RXF 393
[10] = system: SF-539
[11] = system: ACHN
[12] = system: SR
[13] = system: MDA-MB-435
[14] = system: MCF7
[15] = system: HOP-92

CCOC(=O)N1CCN(C(=O)Nc2cccc3ccccc23)CC1
GI50 [1]: > 10 µM (inactive)
GI50 [2]: > 10 µM (inactive)
GI50 [3]: > 10 µM (inactive)
GI50 [4]: > 10 µM (inactive)
GI50 [5]: > 10 µM (inactive)
GI50 [6]: > 10 µM (inactive)
GI50 [7]: > 10 µM (inactive)
GI50 [8]: > 10 µM (inactive)
GI50 [9]: > 10 µM (inactive)
GI50 [10]: > 10 µM (inactive)
GI50 [11]: > 10 µM (inactive)
GI50 [12]: > 10 µM (inactive)
GI50 [13]: > 10 µM (inactive)
GI50 [14]: > 10 µM (inactive)

CC(C)C1OC(=O)/C=C/C=C/C=C/C=C/C=C/CC(O)C(C)C(O)CC(O)CC(O)CC(O)CC(O)CC(O)CC(O)/C=C/C1C (stereo not given)
GI50 [3]: > 100 µM (inactive)
GI50 [5]: > 100 µM (inactive)
GI50 [15]: > 100 µM (inactive)
GI50 [6]: > 100 µM (inactive)
GI50 [7]: > 100 µM (inactive)
GI50 [8]: > 100 µM (inactive)
GI50 [10]: > 100 µM (inactive)
GI50 [11]: > 100 µM (inactive)
GI50 [12]: > 100 µM (inactive)
GI50 [13]: > 100 µM (inactive)
GI50 [14]: > 100 µM (inactive)

COc1ccc(C(O)(c2ccccc2)c2nccc3ccccc23)cc1 (stereo not given)
GI50 [1]: 3.2 µM (inactive)
GI50 [2]: 6.22 µM (inactive)
GI50 [4]: 36.8 µM (inactive)
GI50 [6]: 3.02 µM (inactive)
GI50 [7]: 2.76 µM (inactive)
GI50 [8]: 27.8 µM (inactive)
GI50 [9]: 3.19 µM (inactive)
GI50 [11]: 12.3 µM (inactive)
GI50 [12]: 7.74 µM (inactive)
GI50 [13]: 3.6 µM (inactive)
GI50 [14]: 4.32 µM (inactive)

O=C1CCCCC1C(O)(C(F)(F)F)C(F)(F)Cl (stereo not given)
GI50 [1]: > 10 µM (inactive)
GI50 [2]: > 10 µM (inactive)
GI50 [3]: > 10 µM (inactive)
GI50 [4]: > 10 µM (inactive)
GI50 [5]: > 10 µM (inactive)
GI50 [15]: > 10 µM (inactive)
GI50 [6]: > 10 µM (inactive)
GI50 [7]: > 10 µM (inactive)
GI50 [8]: > 10 µM (inactive)
GI50 [9]: > 10 µM (inactive)
GI50 [10]: > 10 µM (inactive)
GI50 [11]: > 10 µM (inactive)
GI50 [12]: > 10 µM (inactive)
GI50 [13]: > 10 µM (inactive)
GI50 [14]: > 10 µM (inactive)

CCOC(=O)C1(C(=O)OCC)CSC1
GI50 [1]: > 100 µM (inactive)
GI50 [2]: > 100 µM (inactive)
GI50 [4]: > 100 µM (inactive)
GI50 [5]: > 100 µM (inactive)
GI50 [15]: > 100 µM (inactive)
GI50 [6]: > 100 µM (inactive)
GI50 [7]: > 100 µM (inactive)
GI50 [8]: > 100 µM (inactive)
GI50 [9]: > 100 µM (inactive)
GI50 [11]: > 100 µM (inactive)
GI50 [12]: > 100 µM (inactive)
GI50 [13]: > 100 µM (inactive)
GI50 [14]: > 100 µM (inactive)

N#Cc1c(NC(=S)Nc2ccc(Cl)cc2)sc2c1CCCC2
GI50 [1]: > 100 µM (inactive)
GI50 [2]: > 100 µM (inactive)
GI50 [3]: > 100 µM (inactive)
GI50 [4]: > 100 µM (inactive)
GI50 [5]: > 100 µM (inactive)
GI50 [6]: > 100 µM (inactive)
GI50 [8]: > 100 µM (inactive)
GI50 [9]: > 100 µM (inactive)
GI50 [11]: > 100 µM (inactive)
GI50 [12]: 25.1 µM (inactive)
GI50 [13]: > 100 µM (inactive)
GI50 [14]: > 100 µM (inactive)

CC(=O)OC/C=C\Cn1nc(Br)c(=O)[nH]c1=O
GI50 [1]: 15.6 µM (inactive)
GI50 [2]: 15.7 µM (inactive)
GI50 [3]: 13.1 µM (inactive)
GI50 [4]: 13.9 µM (inactive)
GI50 [5]: 14.3 µM (inactive)
GI50 [15]: 13 µM (inactive)
GI50 [6]: 13.2 µM (inactive)
GI50 [7]: 14.9 µM (inactive)
GI50 [8]: 19.1 µM (inactive)
GI50 [9]: 10.6 µM (inactive)
GI50 [10]: 11.2 µM (inactive)
GI50 [11]: 7.87 µM (inactive)
GI50 [12]: 4.06 µM (inactive)
GI50 [13]: 14.6 µM (inactive)
GI50 [14]: 11.5 µM (inactive)

O=C1c2ccccc2C(=O)N1CC(CN1C(=O)c2ccccc2C1=O)(C(=O)OCc1ccccc1)C(=O)OCc1ccccc1
GI50 [1]: > 100 µM (inactive)
GI50 [2]: > 100 µM (inactive)
GI50 [3]: > 100 µM (inactive)
GI50 [4]: > 100 µM (inactive)
GI50 [15]: > 100 µM (inactive)
GI50 [6]: > 100 µM (inactive)
GI50 [7]: > 100 µM (inactive)
GI50 [9]: 14.4 µM (inactive)
GI50 [12]: > 100 µM (inactive)
GI50 [13]: > 100 µM (inactive)

CC1(C)CCCCCC(C)(CCCO)C1=O (stereo not given)
GI50 [2]: > 100 µM (inactive)
GI50 [3]: > 100 µM (inactive)
GI50 [4]: > 100 µM (inactive)
GI50 [5]: > 100 µM (inactive)
GI50 [15]: > 100 µM (inactive)
GI50 [6]: > 100 µM (inactive)
GI50 [7]: > 100 µM (inactive)
GI50 [9]: > 100 µM (inactive)
GI50 [11]: > 100 µM (inactive)
GI50 [12]: > 100 µM (inactive)
GI50 [13]: > 100 µM (inactive)
GI50 [14]: > 100 µM (inactive)

CCCNC1=NC(C)=CSC(Nc2ccccc2)=C1C#N
GI50 [1]: > 100 µM (inactive)
GI50 [2]: > 100 µM (inactive)
GI50 [3]: > 100 µM (inactive)
GI50 [4]: > 100 µM (inactive)
GI50 [5]: > 100 µM (inactive)
GI50 [6]: > 100 µM (inactive)
GI50 [7]: > 100 µM (inactive)
GI50 [8]: > 100 µM (inactive)
GI50 [9]: > 100 µM (inactive)
GI50 [10]: > 100 µM (inactive)
GI50 [11]: > 100 µM (inactive)
GI50 [12]: > 100 µM (inactive)
GI50 [13]: > 100 µM (inactive)
GI50 [14]: > 100 µM (inactive)

C=CCN1C(=O)/C(=C/c2cccs2)N=C1SC1OC(COC(=O)c2ccccc2)C(OC(=O)c2ccccc2)C1OC(=O)c1ccccc1 (stereo not given)
GI50 [2]: > 100 µM (inactive)
GI50 [3]: > 100 µM (inactive)
GI50 [5]: > 100 µM (inactive)
GI50 [15]: > 100 µM (inactive)
GI50 [6]: > 100 µM (inactive)
GI50 [8]: > 100 µM (inactive)
GI50 [9]: > 100 µM (inactive)
GI50 [10]: > 100 µM (inactive)
GI50 [11]: > 100 µM (inactive)
GI50 [12]: > 100 µM (inactive)
GI50 [13]: > 100 µM (inactive)
GI50 [14]: 36.6 µM (inactive)

Cc1nc2ccc(NC3OCC(O)C(O)C3O)cc2c(=O)n1-c1ccccc1 (stereo not given)
GI50 [1]: > 100 µM (inactive)
GI50 [2]: > 100 µM (inactive)
GI50 [3]: > 100 µM (inactive)
GI50 [4]: > 100 µM (inactive)
GI50 [5]: > 100 µM (inactive)
GI50 [6]: > 100 µM (inactive)
GI50 [8]: > 100 µM (inactive)
GI50 [9]: > 100 µM (inactive)
GI50 [11]: > 100 µM (inactive)
GI50 [12]: > 100 µM (inactive)
GI50 [13]: > 100 µM (inactive)
GI50 [14]: > 100 µM (inactive)

CC(=O)OC1CCn2c1nc1cc([N+](=O)[O-])c(C)cc12 (stereo not given)
GI50 [1]: > 100 µM (inactive)
GI50 [2]: > 100 µM (inactive)
GI50 [3]: > 100 µM (inactive)
GI50 [4]: > 100 µM (inactive)
GI50 [5]: > 100 µM (inactive)
GI50 [15]: > 100 µM (inactive)
GI50 [6]: > 100 µM (inactive)
GI50 [7]: > 100 µM (inactive)
GI50 [9]: > 100 µM (inactive)
GI50 [10]: > 100 µM (inactive)
GI50 [11]: > 100 µM (inactive)
GI50 [12]: > 100 µM (inactive)
GI50 [13]: > 100 µM (inactive)
GI50 [14]: > 100 µM (inactive)

C[N+]1(C)CCCC(C#N)(c2ccccc2)CC1 (stereo not given)
GI50 [1]: > 100 µM (inactive)
GI50 [2]: > 100 µM (inactive)
GI50 [4]: > 100 µM (inactive)
GI50 [5]: > 100 µM (inactive)
GI50 [15]: > 100 µM (inactive)
GI50 [6]: > 100 µM (inactive)
GI50 [7]: > 100 µM (inactive)
GI50 [8]: > 100 µM (inactive)
GI50 [9]: > 100 µM (inactive)
GI50 [11]: > 100 µM (inactive)
GI50 [12]: > 100 µM (inactive)
GI50 [14]: > 100 µM (inactive)

COc1ccc2[nH]c3c(C)c4ccnc(NCCCN(C)CCCNc5ccc6nnn7c8ccccc8c(=O)c5c67)c4c(C)c3c2c1
GI50 [1]: 0.583 µM (active)
GI50 [3]: > 10 µM (inactive)
GI50 [4]: 1.81 µM (inactive)
GI50 [5]: 0.013 µM (active)
GI50 [6]: 0.597 µM (active)
GI50 [7]: 0.938 µM (active)
GI50 [8]: 1.07 µM (active)
GI50 [9]: 1.03 µM (active)
GI50 [10]: 0.237 µM (active)
GI50 [11]: 0.0773 µM (active)
GI50 [12]: 0.335 µM (active)
GI50 [13]: 0.362 µM (active)
GI50 [14]: 0.0561 µM (active)
